# Measured values reported in patent US8361781B2, “Cell aggregation and encapsulation device and method” (Brown University, priority 2006, dated 2013).
# Experiments:
# Type in all cases: cell-based, human
# [1] = tested on: NHFs; assay: Toroid stability of NHFs in micro-molded agarose toroidal aggregation devices
# Source text: Micro-molded, non-adhesive, cell aggregation devices, each having a plurality of cell aggregation recesses in the shape of either troughs or tori were made following the method described in Example 1. Agarose was employed as the hydrogel material and the cell aggregation recess features were as follows. Troughs were 400 μm wide with bottoms rounded with 200 μm radii. There were 21 rows of troughs of increasing length per gel. Each row had 11 troughs, two of which were 400 μm long, then one each of 600 μm through 1800 μm increasing at 200 μm lengths, then two 2200 μm troughs. The 2200 μm troughs were used for all experiments except those for FIG. 9c, which presents data from all trough lengths. […] A z-stack of images from the 4× objective with 10-50 μm between focal planes was collected at each time point using custom-designed Openlab 4.0.2 automations and images were analyzed using Volocity 3.1 (Improvision). […] The core circumference of tori was measured as a continuous circumferential line located at the estimated midpoint of the perpendicular width of the toroid. Micro-molded agarose toroidal aggregation devices (n=208) made as described in Example 9 were seeded with untreated NHFs and NHFs treated with 100 μM of the cell contraction inhibitor Y-27632 (Calbiochem (EMD Biosciences, Inc.), San Diego, Calif.) and the number of stable toroids with patent centers was measured over time. […]
# [2] = tested on: NHFs; assay: Rod aggregation kinetics in 2.2 mm troughs after removal of drug (time-lapse); conditions: 100 μM Y-27632 initially, removed at 1.5 hrs and replaced with normal medium, FIG. 11
# Method: Excess medium was aspirated from the wells and 200 μL of a single cell suspension was pipetted into the aggregation recess of each gel. Medium was added to the wells after a 1.5 hour incubation period wherein cells settled into the aggregation recesses and commenced the self-assembly process. Medium was exchanged every other day. […] A z-stack of images from the 4× objective with 10-50 μm between focal planes was collected at each time point using custom-designed Openlab 4.0.2 automations and images were analyzed using Volocity 3.1 (Improvision). Bright-field and fluorescent images were obtained using an Olympus IX70 microscope equipped with an AxioCam MRc digital camera. For the time-lapse experiments, medium was carefully added 20-30 minutes post seeding, before the devices were transferred to the time lapse microscope. Measurements of morphological changes were performed with ImageJ data analysis software. The length of a rod was the length of a line drawn from end to end of the structure (long-axis length). The core circumference of tori was measured as a continuous circumferential line located at the estimated midpoint of the perpendicular width of the toroid. Gels with trough features 2.2 mm in length were then seeded with NHFs or with NHFs treated initially with 100 μM Y-27632 and imaged every 10 minutes. At 1.5 hrs, the Y-27632 solution was removed and replaced with normal medium. […]
# [3] = tested on: NHFs; assay: Viability staining of treated NHF honeycombs; conditions: NHF honeycombs maintained in Y-27632 solution, day 5
# Method: NHF cells alone, H35 cells alone, and 50:50 mixtures of NHF and H35 cells were seeded into the trough aggregation devices and the tori aggregation devices as described in Example 2 and allowed to aggregate. Briefly, NHF cells derived from neonatal foreskins and H35 rat hepatoma cells were expanded in DMEM supplemented with 10% fetal bovine serum (FBS) and 1% penicillin/streptomycin solution. NHF cells were incubated in a 10% CO2 atmosphere and H35 cells were incubated in 5% CO2. The mixture experiments were a 50:50 mix of both cell types and were maintained in a 5% CO2 atmosphere. The cells were stained with fluorescent dyes (NHF cells with CellTracker Red CMTPX and H35 cells with CellTracker Green CMFDA from Invitrogen) to allow their aggregation in the mixed populations to be followed and their aggregated position visualized. Cells used in experiments were between passage 3 and passage 9. Cell viability was determined using the LIVE/DEAD Viability/Cytotoxicity Kit (Invitrogen) in accordance with the manufacturer's instructions.
# Lastly, NHFs were seeded onto honeycomb-structured cell aggregation devices made as described in Example 9B and maintained in Y-27632 solution.
# [4] = tested on: NHFs; assay: NHF aggregation in honeycomb-structured cell aggregation devices; conditions: NHFs maintained in Y-27632 solution, day 5; untreated NHFs contracted up and off of pegs within 1 day
# Method: In this experiment, cell aggregation devices were formed from agarose gels as described above, but agarose gels were micromolded with honeycomb-shaped recesses instead of troughs or a tori. The honeycomb-shaped recesses are essentially overlapping, tori-shaped recesses: There are 13 pegs (1 central, 6 concentric around the central peg and 6 outer pegs at 0°, 60°, 120°, 180°, 240°, 300° and 360°) within a network of recesses […] and with bottoms rounded with 200 μm radii. Time lapse microscopy was again used to monitor self-assembly of the NHF cells alone, the H35 cells alone and 50:50 mixtures of NHF cells and H35 cells as described above. The results are shown in FIG. 8, at time 0 (top row), 10 hours post-seeding (middle row) and 20 hours post-seeding (bottom row) with the aggregated NHF cells in column A, the aggregated H35 cells in column B and the aggregated 1:1 mixture of NHF and H35 cells in column C. The aggregated NHF cells quickly thinned, became taught and popped off the outer pegs of the honeycomb shaped substrate. Once freed from the substrate, the honeycomb-shaped aggregates of NHF cells contracted in a uniform manner but maintained its shape. The aggregated H35 cells thinned more slowly, maintaining contact with the outer pegs and staying within the molds. […]
# [5] = tested on: NHF cells; assay: Rod length change kinetics of NHF aggregates in 2.2 mm trough features; conditions: NHF cells treated with 50 μM and 200 μM Y-27632, 2.2 mm troughs, FIG. 10
# Source text: Micro-molded, non-adhesive, cell aggregation devices, each having a plurality of cell aggregation recesses in the shape of either troughs or tori were made following the method described in Example 1. Agarose was employed as the hydrogel material and the cell aggregation recess features were as follows. Troughs were 400 μm wide with bottoms rounded with 200 μm radii. There were 21 rows of troughs of increasing length per gel. Each row had 11 troughs, two of which were 400 μm long, then one each of 600 μm through 1800 μm increasing at 200 μm lengths, then two 2200 μm troughs. The 2200 μm troughs were used for all experiments except those for FIG. 9c, which presents data from all trough lengths. […] A z-stack of images from the 4× objective with 10-50 μm between focal planes was collected at each time point using custom-designed Openlab 4.0.2 automations and images were analyzed using Volocity 3.1 (Improvision). […] The core circumference of tori was measured as a continuous circumferential line located at the estimated midpoint of the perpendicular width of the toroid. […] Next, aggregation devices with trough features 2.2 mm in length were made as described in previous examples and seeded with NHF cells, NHF cells in serum-free medium, NHF cells treated with 50 μM of Y-27632 and NHF cells treated with 200 μM of Y-27632 and the lengths of resulting rod shaped aggregates were measured. […]
structure (smiles),measurement,setting,value
C[C@@H](N)[C@H]1CC[C@H](C(=O)Nc2ccncc2)CC1 [Y-27632],treated NHFs still having patent centers (stable toroids),"[1]; 100 μM Y-27632, day 1, n=104, all untreated NHFs had progressed to spheroids",90%
same,treated NHFs still having patent centers (stable toroids),"[1]; 100 μM Y-27632, day 2, n=104",5%
same,aggregation kinetics after removal of the drug,[2],progressing with similar kinetics to those of untreated NHFs
same,cell viability (viability staining),[3],majority of the cells were living at day 5
same,maintenance of honeycomb structure,[4],remained intact in the honeycomb-shaped recesses at day 5
same,effect on length change kinetics of rod shaped aggregates,[5],dramatically slowed length change kinetics in rods
